{
  "source": "patent US20240398831A1",
  "about": "“COMPOSITIONS COMPRISING SMALL MOLECULE REGULATORS OF TUMOR IMMUNITY AND METHODS OF USING SAME” (Duke University, priority 2021, published 2024)",
  "key": {"B16F10 tumors": {"test_system": "B16F10 tumors", "assay": "B16F10 tumor growth in ovariectomized NSG mice", "type": "in vivo, mouse", "experimental": "Tumor formation in these mice were induced with a single intradermal dose of 150 μg of 4-hydroxytamoxifen (4OHT). […] FIGS. 6A-6B and FIGS. 6E-6F are representative of two independent experiments. Data are expressed as mean t S.E.M. Significance was calculated using the Student's t test (FIG. 6C and FIG. 6H), log-rank test (FIG. 6D and FIG. 6G), and two-way ANOVA followed by Bonferroni's multiple correction (FIGS. 6A-6B, FIGS. 6E-6F, and FIG. 6I) (*p<0.05, *p<0.01, and ***<0.001).\nMice. C57BL/BJ, LysMCre (B6.129P2-Lyz2^tm1(cre)lfo/J) Pmel (B6.Cg-Thy1^a/Cy Tg(TcraTcrb)8Rest/J) mice were from Jackson Laboratories (Bar Harbor, ME). Age matched mice were used for all the studies. LysMCre mice were bred to Esr1^f/f mice to generate Esr1^f/f; LysMCre and littermate control LysMCre and Esr1^f/f mice. iBP (Braf^V600E/WT, Pten^f/fmTyrCreERT2) mice were generated by crossing breeders Braf^WT/WT/Pten^f/f, mTyrCreERT2 mice to BRAF^V600E, Pten^f/f mice. The mice were housed in secure animal facility cages in 12 hour light:dark cycles at temperature around 25° C. and 70% humidity. […]\nTumor models and cells. […] Tumors were measured thrice weekly using an electronic caliper. Tumor volumes were calculated by the formula V=L×(W×W)/2. For iBP mouse tumors, volumes were calculated by the formula V=L×B×H. For tumor growth rate studies mice were euthanized when the tumors reached a maximum size of 2000 mm^3."}, "[1]": {"test_system": "WNT5A and TCF4 target genes", "assay": "Quantitative PCR of tumor infiltrating myeloid cells from iBP tumors", "type": "in vivo, mouse", "experimental": "All target genes were normalized to Rplp0 and then siEsr1 (FIG. 14E) or DMSO (FIG. 14F) samples were normalized to siRNA control. Data are represented as mean±S.E.M. Significance was calculated by Student's t test (FIGS. 14C-14D) (*p<0.05, **p<0.01, and ***p<0.001).\nQuantitative PCR of tumor Infiltrating myeloid cells. Tumor infiltrating myeloid cells were isolated from iBP tumors using a CD11b isolation kit (catalog #18970, StemCell Technologies). RNA was isolated using RNA Aqueous Micro kit (catalog #1931, Ambion) followed by cDNA synthesis using an iScript cDNA synthesis kit (Cat #170-7691). Quantitative amplification was performed using Sybr Green (Cat #1725124, Bio-Rad) and a CFX-384 Real Time PCR detection system. Primers used are listed below in TABLE 1."}, "CD3+ T cells": {"test_system": "CD3+ T cells", "assay": "T cells co-cultured with tumor infiltrating CD11b+ myeloid cells from iBP tumors", "type": "cell-based, mouse", "conditions": "myeloid cells from E2 vs placebo treated mice, 72 hr", "experimental": "T cell proliferation assay and staining. CD3+ T cells were isolated from the spleens of C57BL/6J or P-mel mice with magnetic bead-based T cell isolation kit (Cat #19851, StemCell Technologies). T cells from naïve mice were stained with 5 μM CFSE (Cat #C34554, ThermoFisher Scientific) for 5 minutes in PBS+5% CFS with rapid vortexing following which the cells were washed twice with PBS. Stained T cells were then counted and plated in 96-well plates coated with anti-CD3 antibody (0.5 μg/mL, Cat #19851, ThermoFisher Scientific) anti-CD28 antibody (1 μg/mL, Cat #16-0281-86, Thermo Fisher Scientific) at desired density (250,000 T cells/50,000 CD11b or BMDM) in the presence of IL2 (50 ng/mL) (Cat #212-12, PeproTech). 72 hr after plating the cells were incubated with protein transport inhibitors brefeldin (Cat #00-4506-51, Thermo Fisher Scientific) and monensin (Cat #00-4505-51, Thermo Fisher Scientific) for 6 hr at a final concentration of 2 μM monensin and 3 μg/mL brefeldin after which they were collected and were processed for staining for flow cytometry.\nThese cells were then co-incubated with CD3^+ T cells isolated from the spleens of non-tumor bearing Pmel mice (Thy1^a/Cy Tg(TcraTcrb)8Rest/J) for 72 hr. iBP tumors express gp100 (Pmel) that can be processed and presented by professional antigen presenting cells to T cells that are specific to the antigen (gp100). Prior to coincubation, T cells were stained with the Carboxyfluorescein succinimidyl ester (CFSE) dye and activated in the presence of sub-optimal CD3/CD28. […] In this experiment, the phenotypic characteristics of the isolated myeloid cells were not defined, i.e., bone marrow derived vs resident macrophages."}, "B16F10 cells": {"test_system": "B16F10 cells", "assay": "Quantitative PCR of ER target genes in melanoma cells", "type": "cell-based, mouse", "conditions": "E2 1 nM, 16 hr"}},
  "data": [
    {"substance": "17β-estradiol [E2]", "values": [
      {"measurement": "slower tumor growth kinetics imparted by ovariectomy (placebo vs E2)", "setting": "B16F10 tumors", "result": "disappeared"},
      {"measurement": "genes in the WNT5A and TCF4 pathways", "setting": "[1]; E2 compared to placebo", "result": "differentially regulated"},
      {"measurement": "expression of Vegfa, Tgm2 and Tspo and Stat1", "setting": "[1]; myeloid cells from E2 treated tumors", "result": "increased expression"},
      {"measurement": "T cell (both CD4+ and CD8+) proliferation, CFSE dye dilution", "setting": "CD3+ T cells", "result": "significantly inhibited"},
      {"measurement": "expression of IFNγ in CD8+ and CD4+ T cells", "setting": "CD3+ T cells", "result": "decreased expression"},
      {"measurement": "expression of granzyme B (GZMB) in CD8+ and CD4+ T cells", "setting": "CD3+ T cells", "result": "decreased expression"},
      {"measurement": "expression of classical ER target genes (Pgr and Cxc112)", "setting": "B16F10 cells", "result": "did not lead to changes"}
    ]}
  ]
}
